Assay results reported in ChEMBL document CHEMBL4602737, “Structure-Guided Identification of DNMT3B Inhibitors” (ACS Med Chem Lett, 2020).
pIC50: −log10 of the molar value.

Experiments:
[1] = target: T1, DNA (cytosine-5)-methyltransferase 3B (Homo sapiens, UniProt Q9UBC3); assay: Inhibition of human recombinant DNMT3B expressed in baculovirus infected insect cells using CpG site containing internally quenched hairpin oligonucleotide DNA substrate and SAM incubated for 30 mins by kinetic fluorogenic assay; conditions: for pIC50: read-out: IC50
[2] = target: DNA (cytosine-5)-methyltransferase 1 (Homo sapiens, UniProt P26358); assay: Inhibition of human recombinant DNMT1 expressed in baculovirus infected insect cells using CpG site containing internally quenched hairpin oligonucleotide DNA substrate and SAM incubated for 30 mins by kinetic fluorogenic assay
[3] = Toxicity in mouse; type: organism-based; conditions: in vivo
[4] = Cytotoxicity in African green monkey Vero cells assessed as reduction in cell viability; type: cell-based; conditions: chlorocebus sabaeus
[5] = target: T1, DNA (cytosine-5)-methyltransferase 3B; assay: Inhibition of human recombinant DNMT3B expressed in baculovirus infected insect cells by DRONE assay

Chain of DNA (cytosine-5)-methyltransferase 1 (P26358 whole entry): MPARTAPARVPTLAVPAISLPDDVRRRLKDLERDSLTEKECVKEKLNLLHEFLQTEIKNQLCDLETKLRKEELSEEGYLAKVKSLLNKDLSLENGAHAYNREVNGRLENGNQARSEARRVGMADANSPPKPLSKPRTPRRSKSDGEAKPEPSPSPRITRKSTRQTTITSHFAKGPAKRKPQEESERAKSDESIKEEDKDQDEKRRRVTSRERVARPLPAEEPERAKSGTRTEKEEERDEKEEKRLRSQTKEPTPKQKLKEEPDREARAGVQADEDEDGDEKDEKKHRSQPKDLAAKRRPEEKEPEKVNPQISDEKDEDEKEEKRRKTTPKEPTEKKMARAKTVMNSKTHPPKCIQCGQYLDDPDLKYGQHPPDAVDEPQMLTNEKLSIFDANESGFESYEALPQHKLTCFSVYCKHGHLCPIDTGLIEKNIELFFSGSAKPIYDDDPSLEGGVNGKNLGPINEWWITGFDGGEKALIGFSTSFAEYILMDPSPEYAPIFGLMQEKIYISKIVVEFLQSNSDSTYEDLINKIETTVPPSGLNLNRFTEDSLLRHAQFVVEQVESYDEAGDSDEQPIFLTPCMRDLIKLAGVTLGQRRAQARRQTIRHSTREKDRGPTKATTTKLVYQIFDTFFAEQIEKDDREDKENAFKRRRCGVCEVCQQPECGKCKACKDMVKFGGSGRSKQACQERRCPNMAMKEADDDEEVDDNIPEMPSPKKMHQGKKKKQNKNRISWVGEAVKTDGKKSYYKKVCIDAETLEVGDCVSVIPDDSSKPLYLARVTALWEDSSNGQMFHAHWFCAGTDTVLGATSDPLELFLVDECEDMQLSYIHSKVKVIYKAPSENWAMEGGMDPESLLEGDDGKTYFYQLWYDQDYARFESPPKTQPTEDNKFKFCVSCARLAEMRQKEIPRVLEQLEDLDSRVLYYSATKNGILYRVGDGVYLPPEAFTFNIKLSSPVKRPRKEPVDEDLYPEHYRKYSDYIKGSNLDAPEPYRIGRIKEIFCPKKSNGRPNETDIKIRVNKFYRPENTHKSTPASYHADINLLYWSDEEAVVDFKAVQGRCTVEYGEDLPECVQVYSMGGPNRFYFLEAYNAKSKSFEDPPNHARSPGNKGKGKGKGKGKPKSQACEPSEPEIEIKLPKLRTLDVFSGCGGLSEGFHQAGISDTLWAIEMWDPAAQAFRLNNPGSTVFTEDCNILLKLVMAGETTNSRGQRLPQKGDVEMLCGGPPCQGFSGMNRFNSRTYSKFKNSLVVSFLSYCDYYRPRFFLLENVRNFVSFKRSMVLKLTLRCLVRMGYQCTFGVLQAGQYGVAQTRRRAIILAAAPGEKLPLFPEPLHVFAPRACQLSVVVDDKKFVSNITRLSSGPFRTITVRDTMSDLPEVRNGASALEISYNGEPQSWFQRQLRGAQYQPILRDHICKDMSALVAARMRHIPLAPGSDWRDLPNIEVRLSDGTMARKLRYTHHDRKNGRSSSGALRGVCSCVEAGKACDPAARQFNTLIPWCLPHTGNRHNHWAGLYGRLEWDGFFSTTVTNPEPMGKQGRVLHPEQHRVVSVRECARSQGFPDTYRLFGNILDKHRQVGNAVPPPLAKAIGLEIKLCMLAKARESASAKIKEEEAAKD

Row | Structure (SMILES) | IC50 [1] | other results
1 | O=C(O)[C@H](Cc1c[nH]c2ccccc12)N1C(=O)c2ccccc2C1=O | – | pIC50 [1]: 6.05
2 | CN(Cc1ccc2[nH]ccc2c1)C(=O)CCc1cccc(-c2nc3ccccc3[nH]2)c1 | Not Active | –
3 | O=C(CCc1cccc(-c2nc3ccccc3[nH]2)c1)NCc1ccc2[nH]ncc2c1 | Not Active | –
4 | O=C(CSc1ncnc2sccc12)N1CCN(Cc2cc(=O)n3ccsc3n2)CC1 | – | pIC50 [2]: 4.57
5 | CN(Cc1ccc2cn[nH]c2c1)C(=O)CCc1cccc(-c2nc3ccccc3[nH]2)c1 | Not Active | –
6 | Cc1ccc2c(=O)c(-c3nc(-c4cccc(F)c4)no3)cn(CC(=O)Nc3ccc4c(c3)OCO4)c2n1 | – | pIC50 [2]: 4.55
7 | C[C@@H]1O[C@@H](CC(=O)O)CC2=C1C(=O)c1c(O)cccc1C2=O [NANAFROCIN] | – | LD50 [3]: 28 mg/kg; CC50 [4]: 700 nM; pIC50 [1]: 5.82; pIC50 [5]: 6.14

Continued, in another order:

Row | IC50 [1] | Structure (SMILES) | other results
8 | Not Active | CN(Cc1ccc2cc[nH]c2c1)C(=O)CCc1cccc(-c2nc3ccccc3[nH]2)c1 | –
9 | Not Active | CN(Cc1ccc2cc[nH]c2c1)C(=O)CCc1cccc(-c2cc3ccccc3[nH]2)c1 | –
10 | Not Active | CN(Cc1ccc2cn[nH]c2c1)C(=O)CCc1cccc(-c2cc3ccccc3[nH]2)c1 | –
11 | Not Active | CN(Cc1ccc2[nH]ccc2c1)C(=O)CCc1cccc(-c2cc3ccccc3[nH]2)c1 | –
